Assay results from PubChem BioAssay AID330 (DTP/NCI, 2004).
Where “and” joins values, the source holds several entries; their conditions need not be identical. Identical values can stand only once. Inconclusive results and toxic doses are left out.

Tested on: P388 leukemia ip, CD2F1 mice, survival T/C
Experiment: NCI In Vivo Anticancer Drug Screen. Data for tumor model P388 Leukemia (intraperitoneal) in CD2F1 (CDF1) mice
Details: endpoint: median survival time, higher = longer survival
Method in brief: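 Mice carrying the transplanted tumor received test compound or vehicle. Survival was recorded in each group, and the value is the treated-group measurement divided by that of the vehicle-treated control group.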

[1] = dose: 50.0 mg/kg/injection, schedule: Q01DX009 (ip), vehicle: saline
[2] = dose: 100.0 mg/kg/injection, schedule: Q01DX009 (ip), vehicle: saline
[3] = dose: 200.0 mg/kg/injection, schedule: Q01DX009 (ip), vehicle: saline
[4] = dose: 6.25 mg/kg/injection, schedule: Q01DX009 (ip), vehicle: Klucel (hydroxypropylcellulose) (HPC)
[5] = dose: 12.5 mg/kg/injection, schedule: Q01DX009 (ip), vehicle: Klucel (hydroxypropylcellulose) (HPC)
[6] = dose: 25.0 mg/kg/injection, schedule: Q01DX009 (ip), vehicle: Klucel (hydroxypropylcellulose) (HPC)
[7] = dose: 100.0 mg/kg/injection, schedule: Q01DX001 (ip), vehicle: saline with Tween-80
[8] = dose: 200.0 mg/kg/injection, schedule: Q01DX001 (ip), vehicle: saline with Tween-80
[9] = dose: 50.0 mg/kg/injection, schedule: Q01DX009 (ip), vehicle: saline with Tween-80
[10] = dose: 100.0 mg/kg/injection, schedule: Q01DX009 (ip), vehicle: saline with Tween-80
[11] = dose: 100.0 mg/kg/injection, schedule: Q04DX003 (ip), vehicle: saline with Tween-80
[12] = dose: 50.0 mg/kg/injection, schedule: Q01DX009 (ip), vehicle: Klucel (hydroxypropylcellulose) (HPC)
[13] = dose: 25.0 mg/kg/injection, schedule: Q01DX005 (ip), vehicle: Klucel (hydroxypropylcellulose) (HPC)
[14] = dose: 50.0 mg/kg/injection, schedule: Q01DX005 (ip), vehicle: Klucel (hydroxypropylcellulose) (HPC)
[15] = dose: 100.0 mg/kg/injection, schedule: Q01DX005 (ip), vehicle: Klucel (hydroxypropylcellulose) (HPC)
[16] = dose: 200.0 mg/kg/injection, schedule: Q01DX005 (ip), vehicle: Klucel (hydroxypropylcellulose) (HPC)
[17] = dose: 50.0 mg/kg/injection, schedule: Q01DX009 (ip), vehicle: suspension in saline
[18] = dose: 100.0 mg/kg/injection, schedule: Q01DX009 (ip), vehicle: suspension in saline

N#CCCP(=O)(O)CO
T/C [1]: 106 % of control
T/C [2]: 100 % of control
T/C [3]: 92 % of control

CC(=O)OC1(OC(C)=O)C=C2OCOC2=CC1=O
T/C (dose: 8.75 mg/kg/injection, schedule: Q01DX005 (ip), vehicle: Klucel (hydroxypropylcellulose) (HPC)): 91 % of control
T/C (dose: 17.5 mg/kg/injection, schedule: Q01DX005 (ip), vehicle: Klucel (hydroxypropylcellulose) (HPC)): 103 % of control

CC(C)N=C(N)/N=C(\N)Nc1ccc2ccc3ccccc3c2c1
T/C [4]: 105 % of control
T/C [5]: 113 % of control
T/C [6]: 103 % of control

COc1cc2c(c(OC)c1OC)-c1ccc(S(C)(=O)=O)c(=O)cc1[C@@H](NC(C)=O)CC2
T/C (dose: 0.78 mg/kg/injection, schedule: Q01DX009 (ip), vehicle: Klucel (hydroxypropylcellulose) (HPC)): 105 % of control and 106 % of control
T/C (dose: 1.56 mg/kg/injection, schedule: Q01DX009 (ip), vehicle: Klucel (hydroxypropylcellulose) (HPC)): 105 % of control and 120 % of control
T/C (dose: 3.12 mg/kg/injection, schedule: Q01DX009 (ip), vehicle: Klucel (hydroxypropylcellulose) (HPC)): 106 % of control and 111 % of control
T/C [4]: 115 % of control
T/C [5]: 105 % of control and 122 % of control
T/C [6]: 108 % of control

CCCCCCCC(=O)Nc1ccccc1CC
T/C (dose: 100.0 mg/kg/injection, schedule: Q04DX003 (ip), vehicle: other): 100 % of control
T/C (dose: 200.0 mg/kg/injection, schedule: Q04DX003 (ip), vehicle: other): 100 % of control
T/C (dose: 400.0 mg/kg/injection, schedule: Q04DX003 (ip), vehicle: other): 95 % of control

Cc1nc(CC#N)c(C(N)=O)c(Nc2ccccc2)n1
T/C [7]: 92 % of control
T/C [8]: 92 % of control
T/C (dose: 400.0 mg/kg/injection, schedule: Q01DX001 (ip), vehicle: saline with Tween-80): 111 % of control

CS(=O)(=O)OCCN(CCOS(C)(=O)=O)c1ccc(/C=N/Nc2ncnc3nc[nH]c23)cc1
T/C [9]: 172 % of control
T/C (dose: 66.0 mg/kg/injection, schedule: Q04DX003 (ip), vehicle: saline with Tween-80): 177 % of control
T/C [10]: 181 % of control
T/C [11]: 177 % of control
T/C (dose: 150.0 mg/kg/injection, schedule: Q04DX003 (ip), vehicle: saline with Tween-80): 195 % of control

CNC(=O)OCc1c(COC(=O)NC)c(C)n(-c2ccc3c(c2)OCO3)c1C
T/C [12]: 89 % of control

CCOC(=O)Cn1nc2oc(=O)c(CCN3CCN(c4ccccc4OC)CC3)c(C)c2c1C
T/C [13]: 103 % of control
T/C [14]: 100 % of control
T/C [15]: 87 % of control
T/C [16]: 109 % of control

C=C1C(=O)O[C@H]2C=C(C)[C@H]3[C@@H](OC(C)=O)C[C@@](C)(O)[C@@H]3C[C@H]12
T/C (dose: 12.5 mg/kg/injection, schedule: Q01DX009 (ip), vehicle: suspension in saline): 106 % of control
T/C (dose: 25.0 mg/kg/injection, schedule: Q01DX009 (ip), vehicle: suspension in saline): 106 % of control
T/C [17]: 103 % of control
T/C [18]: 114 % of control

O=C1N(CC2CO2)CCN1CC1CO1 (stereo unspecified)
T/C (dose: 25.0 mg/kg/injection, schedule: Q01DX009 (ip), vehicle: saline): 120 % of control
T/C [2]: 155 % of control and 159 % of control
T/C [3]: 206 % of control and 215 % of control

N=c1nc2ccc3ccccc3c2nn1-c1ccc([N+](=O)[O-])cc1
T/C (dose: 1.5 mg/kg/injection, schedule: Q01DX009 (ip), vehicle: Klucel (hydroxypropylcellulose) (HPC)): 108 % of control
T/C (dose: 3.0 mg/kg/injection, schedule: Q01DX009 (ip), vehicle: Klucel (hydroxypropylcellulose) (HPC)): 106 % of control
T/C (dose: 6.0 mg/kg/injection, schedule: Q01DX009 (ip), vehicle: Klucel (hydroxypropylcellulose) (HPC)): 108 % of control
T/C [5]: 103 % of control
T/C [6]: 108 % of control
T/C [12]: 119 % of control

Cc1cnc(NCCCCNc2ncc(C)c(-c3ccccc3O)n2)nc1-c1ccccc1O
T/C [14]: 101 % of control
T/C [15]: 101 % of control
T/C [16]: 89 % of control

N#C/C(OC1OC(CO)C(O)C(O)C1O)=C(\C=C/C(=O)O)CC(=O)O (stereo unspecified)
T/C (dose: 50.0 mg/kg/injection, schedule: Q01DX005 (ip), vehicle: saline): 105 % of control
T/C (dose: 100.0 mg/kg/injection, schedule: Q01DX005 (ip), vehicle: saline): 106 % of control
T/C (dose: 200.0 mg/kg/injection, schedule: Q01DX005 (ip), vehicle: saline): 105 % of control

Cc1ccc(Cc2ccc[nH]2)cc1
T/C (dose: 100.0 mg/kg/injection, schedule: Q04DX002 (ip), vehicle: distilled water + Tween-80 + alcohol): 100 % of control
T/C (dose: 200.0 mg/kg/injection, schedule: Q04DX002 (ip), vehicle: distilled water + Tween-80 + alcohol): 100 % of control
T/C (dose: 400.0 mg/kg/injection, schedule: Q04DX002 (ip), vehicle: distilled water + Tween-80 + alcohol): 103 % of control

Nc1c(C(=O)Nc2ccc(NC(=O)c3ccc4c(c3N)C(=O)c3ccccc3C4=O)c3c2C(=O)c2ccccc2C3=O)ccc2c1C(=O)c1ccccc1C2=O
T/C [17]: 103 % of control
T/C [18]: 106 % of control
T/C (dose: 200.0 mg/kg/injection, schedule: Q01DX009 (ip), vehicle: suspension in saline): 103 % of control

CC(=O)OC1CCC2(C)OC(=O)CC2C1 (stereo unspecified)
T/C (dose: 50.0 mg/kg/injection, schedule: Q01DX005 (ip), vehicle: saline with Tween-80): 98 % of control
T/C (dose: 100.0 mg/kg/injection, schedule: Q01DX005 (ip), vehicle: saline with Tween-80): 100 % of control
T/C (dose: 200.0 mg/kg/injection, schedule: Q01DX005 (ip), vehicle: saline with Tween-80): 100 % of control

CC(=O)Cc1cc(-c2cc(CC(C)=O)on2)no1
T/C (dose: 60.0 mg/kg/injection, schedule: Q01DX005 (ip), vehicle: saline): 103 % of control
T/C (dose: 120.0 mg/kg/injection, schedule: Q01DX005 (ip), vehicle: saline): 99 % of control
T/C (dose: 240.0 mg/kg/injection, schedule: Q01DX005 (ip), vehicle: saline): 100 % of control

CC(C)NCCCNC(=S)C(=S)NCCCNC(C)C
T/C [14]: 100 % of control
T/C [15]: 94 % of control

COc1ccc2c(c1OC)C(=O)OC2
T/C [14]: 90 % of control
T/C [15]: 90 % of control
T/C [16]: 90 % of control

CCOc1ccc(-c2nc3ccc(-c4nc5ccc(N6CCN(C)CC6)cc5[nH]4)cc3[nH]2)cc1
T/C (dose: 3.12 mg/kg/injection, schedule: Q01DX005 (ip), vehicle: water): 159 % of control

O=C(O)c1ccnc(C(=O)O)c1
T/C [7]: 100 % of control
T/C [8]: 90 % of control

O=C(O)c1cccc2c1C(=O)N(c1ccc3c(c1)Cc1ccccc1-3)C2=O
T/C [13]: 97 % of control
T/C [14]: 98 % of control
T/C [15]: 95 % of control
T/C [16]: 96 % of control

O=C(Nc1ccc(Nc2ccc3c(c2)C(=O)c2ccccc2C3=O)c2c1C(=O)c1ccccc1C2=O)c1ccccc1
T/C [14]: 92 % of control
T/C [15]: 91 % of control
T/C [16]: 88 % of control

NC(=O)C1=C(N)CCC1
T/C [10]: 90 % of control
T/C (dose: 200.0 mg/kg/injection, schedule: Q01DX009 (ip), vehicle: saline with Tween-80): 90 % of control
T/C (dose: 400.0 mg/kg/injection, schedule: Q01DX009 (ip), vehicle: saline with Tween-80): 100 % of control

O=C1/C(=C/c2ccccn2)CCc2ccccc21
T/C [1]: 102 % of control
T/C [2]: 101 % of control
T/C [3]: 99 % of control

O=[N+]([O-])c1ccc(-c2nc(/C=N/N3CCOCC3)cs2)s1
T/C (dose: 25.0 mg/kg/injection, schedule: Q01DX009 (ip), vehicle: saline with Tween-80): 110 % of control
T/C [9]: 115 % of control
T/C [10]: 114 % of control

CCCCOC(=O)C(NC(N)=O)SC (stereo unspecified)
T/C (dose: 50.0 mg/kg/injection, schedule: Q04DX003 (ip), vehicle: saline with Tween-80): 95 % of control
T/C [11]: 100 % of control
T/C (dose: 200.0 mg/kg/injection, schedule: Q04DX003 (ip), vehicle: saline with Tween-80): 99 % of control

COC(=O)N1CCCc2ccc3c(OC)c(OC)cc(c3c2)CC1
T/C (dose: 60.0 mg/kg/injection, schedule: Q01DX005 (ip), vehicle: Klucel (hydroxypropylcellulose) (HPC)): 100 % of control
T/C (dose: 120.0 mg/kg/injection, schedule: Q01DX005 (ip), vehicle: Klucel (hydroxypropylcellulose) (HPC)): 100 % of control
T/C (dose: 240.0 mg/kg/injection, schedule: Q01DX005 (ip), vehicle: Klucel (hydroxypropylcellulose) (HPC)): 88 % of control
